These results are taken from article PMC6197257 (Scientific Reports, 2018).

In this assay the test system is anti-3MGA MAb. As to the kind of experiment: competitive ELISA cross-reactivity of anti-3MGA MAb. The assay is classed as binding, mouse. As to conditions: CR = IC50 for 3MGA / IC50 for compound x 100, 3MGA calibrated as 100%. The method, then: To activate the hapten 3MGA for the preparation of anti-3MGA MAb, the 3MGA-KLH conjugate was synthesized by using a model based on the carbodiimide method with both EDC and NHS reagents. 3MGA-HSA was also prepared using the same method, and was used for ELISA. We also evaluated the hapten number of the 3MGA-HSA conjugate by MALDI-TOF MS analysis. […] The MAb was developed by using the same methods described in our previous study. Hybridomas secreting antibodies recognizing 3MGA were selected by ELISA and then subcloned 4 times by the limited dilution method. […] The heavy chain of the obtained MAb was classified using a Calbiochem mouse hybridoma subisotyping kit (EMD Biosciences, Darmstadt, Germany), whereas the light chain was estimated using an IsoQuick^TM mouse monoclonal isotyping strip (Sigma) according to the manufacturer’s instructions.
3MGA-HSA (1 µg/ml in 50 mM carbonate buffer, pH 9.6) was added into a 96-well plate (Nagel Nunc, Penfield, NY, USA) (100 µl/well), and incubated at 37 °C for 1 h. After the removal of 3MGA-HSA, the wells were washed with 200 µl/well PBS containing 0.05% Tween 20 (T-PBS) for 3 times. The wells were incubated with 300 µl/well of 5% skim milk (Morinaga-milk, Tokyo, Japan) at 4 °C overnight. […] After the wells were washed with T-PBS 3 times, HRP-labeled goat anti-mouse IgG (Fc specific) antibody (1:1,000 dilution with T-PBS) was added into the wells (100 µl/well), and the plate was incubated at 37 °C for 1 h. Next, the wells were washed with T-PBS 3 times, the substrate solution (0.006% H2O2 in 200 mM citrate buffer, pH 4.0/H2O/0.6 mg/ml ABTS 10:9:1) was added into the wells (100 µl/well), and incubated at room temperature for 15 min.

On to `CC1(C)[C@@H](O[C@H]2O[C@H](C(=O)O)[C@@H](O)[C@H](O)[C@H]2O[C@@H]2O[C@H](C(=O)O)[C@@H](O)[C@H](O)[C@H]2O)CC[C@]2(C)[C@H]3C(=O)C=C4[C@@H]5C[C@@](C)(C(=O)O)CC[C@]5(C)CC[C@@]4(C)[C@]3(C)CC[C@@H]12` [GL, glycyrrhizin], for which the “cross-reactivity of anti-3MGA MAb” value turned out to be 0.22%.
As to `CC(C)=CCC[C@](C)(O[C@@H]1O[C@H](CO[C@@H]2O[C@H](CO)[C@@H](O)[C@H](O)[C@H]2O)[C@@H](O)[C@H](O)[C@H]1O)[C@H]1CC[C@]2(C)[C@@H]1[C@H](O)C[C@@H]1[C@@]3(C)CC[C@H](O[C@@H]4O[C@H](CO)[C@@H](O)[C@H](O)[C@H]4O[C@@H]4O[C@H](CO)[C@@H](O)[C@H](O)[C@H]4O)C(C)(C)[C@@H]3CC[C@]12C` [ginsenoside Rb1], the “cross-reactivity of anti-3MGA MAb” value is “less than 0.02%”.
Under `C[C@]1(C(=O)O)CC[C@]2(C)CC[C@]3(C)C(=CC(=O)[C@@H]4[C@@]5(C)CC[C@H](O[C@@H]6O[C@H](C(=O)O)[C@@H](O)[C@H](O)[C@H]6O[C@@H]6O[C@H](C(=O)O)[C@@H](O)[C@H](O)[C@H]6O)[C@](C)(CO)[C@@H]5CC[C@]43C)[C@@H]2C1` [licorice saponin G2] stands “less than 0.02%”; under `O=C1C[C@@H](c2ccc(O[C@@H]3O[C@H](CO)[C@@H](O)[C@H](O)[C@H]3O)cc2)Oc2cc(O)ccc21` [liquiritin], “less than 0.02%”; under `C[C@@]12C[C@@]3(O)O[C@@H](O1)[C@]1(COC(=O)c4ccccc4)[C@H]3C[C@@]12O[C@@H]1O[C@H](CO)[C@@H](O)[C@H](O)[C@H]1O` [paeoniflorin], “less than 0.02%”.
In the case of `C[C@H]1O[C@@H](O[C@H]2CC[C@@]3(C)[C@@H](CC[C@]4(C)[C@@H]3C=C[C@]35OC[C@@]6(CCC(C)(C)C[C@H]63)[C@@H](O)C[C@]54C)[C@]2(C)CO)[C@H](O)[C@@H](O[C@@H]2O[C@H](CO)[C@@H](O)[C@H](O)[C@H]2O)[C@H]1O` [saikosaponin a], the “cross-reactivity of anti-3MGA MAb” value is “less than 0.02%”.
